From patent US20260108687A1 (Belhaven BioPharma Inc., priority 2024, published 2026)

Assay: Phase 1 clinical study / Study 101: plasma epinephrine pharmacokinetics
Format: in vivo
Details: human, 0.3 mg IM, read-out: mean baseline-corrected Cmax
Experimental: Twelve human subjects participated in the open-label, single sequence crossover study. […] The subjects returned for a safety follow up visit 3 to 5 days after the final treatment.
The dry powder formulation was administered via intranasal instillation once using a nasal device (APTAR). The IM solution and materials were supplied by the study site and prepared according to the local procedures. The study drug was administered at approximately the same time on each treatment day. There was a washout period of 20 days between the nasal doses administered as treatment A and treatment D. The subjects were admitted to the clinical site the day before each treatment administration and remained on site until at least 8 hours post-dose, or when applicable, until 24 hours post-dose of the specific treatment period. The study drug was administered after at least a 10 hour fast. A standardized meal was provided approximately 4 hours after dosing. […]
Noncompartmental analysis was performed on individual human subject plasma concentration-time data using nominal doses and actual blood sampling times. […] Baseline correction was accomplished using the average of the measured concentrations at nominal times of −60, −30, and 0 minutes before dosing. […]

CNC[C@H](O)c1ccc(O)c(O)c1 [Epinephrine IM, epinephrine]
Cmax: 184 µg/mL
